According to patent publication US20010049373A1, “Materials and methods for killing nematodes and nematode eggs” (priority 2000, published 2001):

Columns and labels:
[1] = tested on: Caenorhabditis elegans; test: C. elegans L1 larvae dose-response, 5 day visual viability score (Examples 2 and 7); assay type: in vivo; design: key: Dead: only stiff L1s (no movement); Dead (L4): worms are dead, but at a later larval stage; majority of worms are L1 (based on size); majority of worms are L2 (based on size); majority of worms are L3 (based on size); majority of worms are L4 (based on size); AD: majority of worms are adult; #AD: 5 adult worms or less; B!: sterile (0-25 progeny); B: low broodsize (25-100 progeny); ˜B: moderate broodsize (100-250 progeny); <: reduced broodsize (250-500 progeny); OK: no effect (˜1000+ progeny); conditions: day 5, Table 3; for 5 Day Visual Score V6: 0.3 μM (procedure of Example 2); for 5 Day Visual Score V5: 0.9 μM (procedure of Example 2); for 5 Day Visual Score V4: 2.6 μM (procedure of Example 2); for 5 Day Visual Score V2: 23.3 μM (procedure of Example 2); for 5 Day Visual Score V1: 70 μM (procedure of Example 2); for 5 Day Visual Score V3: 7.8 μM (procedure of Example 2)
Method: Caenorhabditis elegans adults were grown on Nematode Growth Medium (NGM) until they produced eggs, then the adults were removed.
The eggs were allowed to hatch, and the L1 larvae collected. See The Neniatode Caenorhabditis elegans (1988) Cold Spring Harbor Laboratory Press. Using a Matrix Programmable Pipette, the L1s were distributed into 96-well tissue culture plates, 20 L1 in 50 μl NGM per well. Antibiotic/Antimyotic was added to each well, and 1% by weight E. coli strain HB101. The subject anthelmintic compounds were stored at 5 mM in 100% DMSO. 0.7 μl of compounds 1-31 were added to the left-most column of wells to yield a final concentration of 70 μM in 1.4% DMSO, with 1.4% DMSO only as the control. The compounds were then subjected to 5 more 3-fold dilutions from left to right to yield 6 column concentrations of 70 μM, 23.3 μM, 7.8 μM, 2.6 μM, 0.9 μM, and 0.3 μM. Plates were stored in air-tight Rubbermaid plastic boxes at 20° C. The nematodes had cleared all control wells by day 4, and nematode viability was scored by visual examination under a 100× dissecting microscope on day 5. A visual viability scoring system was used as follows:
If several classes of worms exist in a well, then all classes are scored. If adults are present, then the brood score is also recorded. Thus, “L1/L2” would mean a mixture of L1's and L2's are present in the well. “L4/#AD/B” would mean that a mixture of L4's and adults are resent in the well. The “#AD” would mean that there are 6 or less adults, and the “B” would mean that there were 100 progeny or less.
Column VI has a compound concentration of 70 μM with sequential 3-fold dilutions reported in columns V2, V3, V4, V5, and V6, respectively, such that the V6 concentration was 0.3 μM.
(§1) The nematicidal activity of anthelmintic Compositions 48-118 were determined in accordance with the procedure outlined in Example 2.

[2] = tested on: Caenorhabditis elegans; test: HTS runs (initial and follow-up): mOD, % Run and visual score (Table 3); assay type: in vivo; design: key to Initial HTS Run Visual Score / Follow-up HTS Run Visual Score: Dead: only stiff L1s (no movement); Dead (L4): worms are dead, but at a later larval stage; majority of worms are L1 (based on size); majority of worms are L2 (based on size); majority of worms are L3 (based on size); majority of worms are L4 (based on size); AD: majority of worms are adult; #AD: 5 adult worms or less; B!: sterile (0-25 progeny); B: low broodsize (25-100 progeny); ˜B: moderate broodsize (100-250 progeny); <: reduced broodsize (250-500 progeny); OK: no effect (˜1000+ progeny)
Method: as §1

FC(F)(F)c1ccc(CNc2cc(Oc3cccc(Cl)c3)ncn2)cc1 [AKC 356]
5 Day Visual Score V6 [1]: < (reduced broodsize (250-500 progeny)) | 5 Day Visual Score V5 [1]: OK (no effect (˜1000+ progeny)) | 5 Day Visual Score V4 [1]: OK (no effect (˜1000+ progeny)) | 5 Day Visual Score V2 [1]: Dead | 5 Day Visual Score V1 [1]: Dead | Follow-up HTS Run % Run [2]: 122% | Follow-up HTS Run Visual Score [2]: L2 | Follow-up HTS Run mOD [2]: 165 mOD | Initial HTS Run % Run [2]: 139% | Initial HTS Run Visual Score [2]: Dead | Initial HTS Run mOD [2]: 272 mOD

COc1ccc(Oc2cc(NCc3ccc(C(F)(F)F)cc3)ncn2)cc1 [AKC 357]
5 Day Visual Score V6 [1]: OK (no effect (˜1000+ progeny)) | 5 Day Visual Score V5 [1]: OK (no effect (˜1000+ progeny)) | 5 Day Visual Score V4 [1]: OK (no effect (˜1000+ progeny)) | 5 Day Visual Score V1 [1]: Dead | Follow-up HTS Run % Run [2]: 98% | Follow-up HTS Run Visual Score [2]: L4/AD/B! | Follow-up HTS Run mOD [2]: 132 mOD | Initial HTS Run % Run [2]: 115% | Initial HTS Run Visual Score [2]: 3AD/B | Initial HTS Run mOD [2]: 224 mOD

Fc1ccc(Oc2cc(NCc3ccc(C(F)(F)F)cc3)ncn2)cc1 [AKC 358]
5 Day Visual Score V6 [1]: OK (no effect (˜1000+ progeny)) | 5 Day Visual Score V5 [1]: OK (no effect (˜1000+ progeny)) | 5 Day Visual Score V4 [1]: OK (no effect (˜1000+ progeny)) | 5 Day Visual Score V2 [1]: Dead | 5 Day Visual Score V1 [1]: Dead | Follow-up HTS Run % Run [2]: 113% | Follow-up HTS Run Visual Score [2]: L3-Dead L3 | Follow-up HTS Run mOD [2]: 153 mOD | Initial HTS Run % Run [2]: 129% | Initial HTS Run Visual Score [2]: Dead | Initial HTS Run mOD [2]: 252 mOD

FC(F)(F)c1ccc(CNc2cc(Oc3ccccc3Cl)ncn2)cc1 [AKC 360]
5 Day Visual Score V6 [1]: OK (no effect (˜1000+ progeny)) | 5 Day Visual Score V5 [1]: OK (no effect (˜1000+ progeny)) | 5 Day Visual Score V4 [1]: OK (no effect (˜1000+ progeny)) | 5 Day Visual Score V3 [1]: OK (no effect (˜1000+ progeny)) | 5 Day Visual Score V2 [1]: Dead | 5 Day Visual Score V1 [1]: Dead | Follow-up HTS Run % Run [2]: 112% | Follow-up HTS Run Visual Score [2]: L4/AD/B! | Follow-up HTS Run mOD [2]: 151 mOD | Initial HTS Run % Run [2]: 139% | Initial HTS Run Visual Score [2]: 1AD/B!-No P | Initial HTS Run mOD [2]: 272 mOD

CN(c1cc(Oc2ccc(-c3ccccc3)cc2)ncn1)C1CCCCC1 [AKC 363]
5 Day Visual Score V6 [1]: OK (no effect (˜1000+ progeny)) | 5 Day Visual Score V5 [1]: OK (no effect (˜1000+ progeny)) | 5 Day Visual Score V4 [1]: OK (no effect (˜1000+ progeny)) | 5 Day Visual Score V3 [1]: ˜B (moderate broodsize (100-250 progeny)) | 5 Day Visual Score V2 [1]: < (reduced broodsize (250-500 progeny)) | 5 Day Visual Score V1 [1]: Dead | Follow-up HTS Run % Run [2]: 122% | Follow-up HTS Run Visual Score [2]: Dead | Follow-up HTS Run mOD [2]: 165 mOD | Initial HTS Run % Run [2]: 141% | Initial HTS Run Visual Score [2]: Dead | Initial HTS Run mOD [2]: 275 mOD

Clc1cccc(CNc2cc(Oc3cccc(Cl)c3)ncn2)c1 [AKC 364]
5 Day Visual Score V6 [1]: OK (no effect (˜1000+ progeny)) | 5 Day Visual Score V5 [1]: OK (no effect (˜1000+ progeny)) | 5 Day Visual Score V4 [1]: < (reduced broodsize (250-500 progeny)) | 5 Day Visual Score V3 [1]: ˜B (moderate broodsize (100-250 progeny)) | 5 Day Visual Score V1 [1]: Dead(L2/L3) | Follow-up HTS Run % Run [2]: 108% | Follow-up HTS Run Visual Score [2]: L4/AD/B! | Follow-up HTS Run mOD [2]: 146 mOD | Initial HTS Run % Run [2]: 121% | Initial HTS Run Visual Score [2]: 4AD/˜B | Initial HTS Run mOD [2]: 236 mOD

Fc1ccc(Oc2cc(NCc3ccccc3F)ncn2)cc1 [AKC 367]
5 Day Visual Score V6 [1]: OK (no effect (˜1000+ progeny)) | 5 Day Visual Score V5 [1]: OK (no effect (˜1000+ progeny)) | 5 Day Visual Score V4 [1]: < (reduced broodsize (250-500 progeny)) | 5 Day Visual Score V3 [1]: < (reduced broodsize (250-500 progeny)) | 5 Day Visual Score V2 [1]: < (reduced broodsize (250-500 progeny)) | 5 Day Visual Score V1 [1]: L1 | Follow-up HTS Run % Run [2]: 91% | Follow-up HTS Run Visual Score [2]: B (low broodsize (25-100 progeny)) | Follow-up HTS Run mOD [2]: 123 mOD | Initial HTS Run % Run [2]: 123% | Initial HTS Run Visual Score [2]: 2AD/B | Initial HTS Run mOD [2]: 239 mOD

Fc1ccc(Oc2cc(NCc3cc(F)cc(F)c3)ncn2)cc1 [AKC 369]
5 Day Visual Score V6 [1]: OK (no effect (˜1000+ progeny)) | 5 Day Visual Score V5 [1]: OK (no effect (˜1000+ progeny)) | 5 Day Visual Score V4 [1]: OK (no effect (˜1000+ progeny)) | 5 Day Visual Score V3 [1]: < (reduced broodsize (250-500 progeny)) | 5 Day Visual Score V1 [1]: Dead | Follow-up HTS Run % Run [2]: 94% | Follow-up HTS Run Visual Score [2]: B (low broodsize (25-100 progeny)) | Follow-up HTS Run mOD [2]: 127 mOD | Initial HTS Run % Run [2]: 115% | Initial HTS Run Visual Score [2]: 1AD/B | Initial HTS Run mOD [2]: 225 mOD

CC(C)(C)OC(=O)N1CCN(c2cc(Oc3ccc(F)cc3)ncn2)CC1 [AKC 373]
5 Day Visual Score V6 [1]: OK (no effect (˜1000+ progeny)) | 5 Day Visual Score V5 [1]: OK (no effect (˜1000+ progeny)) | 5 Day Visual Score V4 [1]: OK (no effect (˜1000+ progeny)) | 5 Day Visual Score V1 [1]: L4 | Follow-up HTS Run % Run [2]: 83% | Follow-up HTS Run Visual Score [2]: B (low broodsize (25-100 progeny)) | Follow-up HTS Run mOD [2]: 112 mOD | Initial HTS Run % Run [2]: 132% | Initial HTS Run mOD [2]: 257 mOD

CC(C)(C)OC(=O)N1CCN(c2cc(Oc3ccccc3Cl)ncn2)CC1 [AKC 374]
5 Day Visual Score V6 [1]: OK (no effect (˜1000+ progeny)) | 5 Day Visual Score V5 [1]: OK (no effect (˜1000+ progeny)) | 5 Day Visual Score V4 [1]: OK (no effect (˜1000+ progeny)) | 5 Day Visual Score V3 [1]: OK (no effect (˜1000+ progeny)) | 5 Day Visual Score V1 [1]: Dead(L2/L3) | Follow-up HTS Run % Run [2]: 114% | Follow-up HTS Run mOD [2]: 154 mOD | Initial HTS Run % Run [2]: 139% | Initial HTS Run Visual Score [2]: L3-Dying | Initial HTS Run mOD [2]: 271 mOD
